Laboratory results as given in patent publication US12077503B2, “Substituted cyclic amides and their use as herbicides” (FMC CORPORATION, priority 2015, dated 2024).

Columns and labels:
Format in all cases: in vivo
[1] = tested on: giant foxtail (Setaria faberii); test: Test A preemergence; details: Preemergence; for Plant response rating, Foxtail, Giant: 125 g ai/ha, visual injury after approximately 10 d, 0 to 100 scale where 0 is no effect and 100 is complete control; for Foxtail, Giant plant response rating (0 to 100 scale, 0 is no effect, 100 is complete control): 500 g ai/ha, visual injury approx. 10 d
Text: (§1) Seeds of plant species selected from barnyardgrass (Echinochloa crus-galli), Kochia (Kochia scoparia), ragweed (common ragweed, Ambrosia elatior), ryegrass, Italian (Italian ryegrass, Lolium multiflorum), crabgrass, large (Digitaria sanguinalis), giant foxtail (Setaria faberii), green foxtail (Setaria viridis), morningglory (Ipomoea spp.), pigweed (Amaranthus retroflexus), velvetleaf (Abutilon theophrasti), wheat (Triticum aestivum), and corn (Zea mays) were planted into a blend of loam soil and sand and treated preemergence with a directed soil spray using test chemicals formulated in anon-phytotoxic solvent mixture which included a surfactant.
(§2) At the same time, plants selected from these crop and weed species and also blackgrass (Alopecurus myosuroides), and Galium (catchweed bedstraw, Galium aparine) were planted in pots containing the same blend of loam soil and sand and treated with postemergence applications of test chemicals formulated in the same manner. Plants ranged in height from 2 to 10 cm and were in the one- to two-leaf stage for the postemergence treatment. Treated plants and untreated controls were maintained in a greenhouse for approximately 10 d, after which time all treated plants were compared to untreated controls and visually evaluated for injury. Plant response ratings, summarized in Table A, are based on a 0 to 100 scale where 0 is no effect and 100 is complete control. A dash (-) response means no test result.

[2] = tested on: pigweed (Amaranthus retroflexus); test: Test A preemergence; details: Preemergence; for Plant response rating, Pigweed: 125 g ai/ha, visual injury after approximately 10 d, 0 to 100 scale where 0 is no effect and 100 is complete control; for Pigweed plant response rating (0 to 100 scale, 0 is no effect, 100 is complete control): 500 g ai/ha, visual injury approx. 10 d
Text: as §1, §2

Kochia (Kochia scoparia) [3] = test: Test A preemergence; details: Preemergence; for Plant response rating, Kochia: 125 g ai/ha, visual injury after approximately 10 d, 0 to 100 scale where 0 is no effect and 100 is complete control; for Kochia plant response rating (0 to 100 scale, 0 is no effect, 100 is complete control): 500 g ai/ha, visual injury approx. 10 d
Text: as §1, §2

[4] = tested on: ragweed (common ragweed, Ambrosia elatior); test: Test A preemergence; details: Preemergence; for Plant response rating, Ragweed: 125 g ai/ha, visual injury after approximately 10 d, 0 to 100 scale where 0 is no effect and 100 is complete control; for Ragweed plant response rating (0 to 100 scale, 0 is no effect, 100 is complete control): 500 g ai/ha, visual injury approx. 10 d
Text: as §1, §2

[5] = tested on: ryegrass, Italian (Italian ryegrass, Lolium multiflorum); test: Test A preemergence; details: Preemergence; for Plant response rating, Ryegrass, Italian: 125 g ai/ha, visual injury after approximately 10 d, 0 to 100 scale where 0 is no effect and 100 is complete control; for Ryegrass, Italian plant response rating (0 to 100 scale, 0 is no effect, 100 is complete control): 500 g ai/ha, visual injury approx. 10 d
Text: as §1, §2

[6] = tested on: barnyardgrass (Echinochloa crus-galli); test: Test A preemergence; details: Preemergence; for Plant response rating, Barnyardgrass: 125 g ai/ha, visual injury after approximately 10 d, 0 to 100 scale where 0 is no effect and 100 is complete control; for Barnyardgrass plant response rating (0 to 100 scale, 0 is no effect, 100 is complete control): 500 g ai/ha, visual injury approx. 10 d
Text: as §1, §2

[7] = tested on: blackgrass (Alopecurus myosuroides); test: Test A postemergence; details: for Blackgrass plant response rating: 125 g ai/ha, postemergence, visual injury rating on 0 to 100 scale (0 no effect, 100 complete control), approx. 10 d; for Plant response rating, Blackgrass: Postemergence, 500 g ai/ha, 0 to 100 scale where 0 is no effect and 100 is complete control
Text: as §1, §2

[8] = tested on: giant foxtail (Setaria faberii); test: Test A postemergence
Text: as §1, §2

[9] = tested on: pigweed (Amaranthus retroflexus); test: Test A postemergence
Text: as §1, §2

Kochia (Kochia scoparia) [10] = test: Test A postemergence
Text: as §1, §2

[11] = tested on: ragweed (common ragweed, Ambrosia elatior); test: Test A postemergence
Text: as §1, §2

[12] = tested on: wheat (Triticum aestivum); test: Test A postemergence
Text: as §1, §2

corn (Zea mays) = test: Test A postemergence
Text: as §1, §2

[13] = tested on: ryegrass, Italian (Italian ryegrass, Lolium multiflorum); test: Test A postemergence
Text: as §1, §2

[14] = tested on: barnyardgrass (Echinochloa crus-galli); test: Test A postemergence; details: for Barnyardgrass plant response rating: 125 g ai/ha, postemergence, visual injury rating on 0 to 100 scale (0 no effect, 100 complete control), approx. 10 d; for Plant response rating, Barnyardgrass: Postemergence, 500 g ai/ha, 0 to 100 scale where 0 is no effect and 100 is complete control
Text: as §1, §2

[15] = tested on: Galium (catchweed bedstraw, Galium aparine); test: Test A postemergence
Text: as §1, §2

[16] = 125 g ai/ha, postemergence, visual injury rating on 0 to 100 scale (0 no effect, 100 complete control), approx. 10 d
[17] = Postemergence, 500 g ai/ha, 0 to 100 scale where 0 is no effect and 100 is complete control
[18] = 125 g ai/ha, postemergence, visual rating after approx. 10 d, 0 to 100 scale (0 no effect, 100 complete control)

| Compound | Plant response rating, Foxtail, Giant [1] | Foxtail, Giant plant response rating (0 to 100 scale, 0 is no effect, 100 is complete control) [1] | Plant response rating, Pigweed [2] | Pigweed plant response rating (0 to 100 scale, 0 is no effect, 100 is complete control) [2] | Plant response rating, Kochia (Kochia (Kochia scoparia) [3]) | Kochia plant response rating (0 to 100 scale, 0 is no effect, 100 is complete control) (Kochia (Kochia scoparia) [3]) | Plant response rating, Ragweed [4] | Ragweed plant response rating (0 to 100 scale, 0 is no effect, 100 is complete control) [4] | Plant response rating, Ryegrass, Italian [5] | Ryegrass, Italian plant response rating (0 to 100 scale, 0 is no effect, 100 is complete control) [5] | Plant response rating, Barnyardgrass [6] | Barnyardgrass plant response rating (0 to 100 scale, 0 is no effect, 100 is complete control) [6] | Blackgrass plant response rating [7] | Plant response rating, Blackgrass [7] | Plant response rating, Foxtail, Giant [8, 17] | Plant response rating, Pigweed [9, 17] | Plant response rating, Kochia (Kochia (Kochia scoparia) [10]; [17]) | Plant response rating, Ragweed [11, 17] | Plant response rating, Wheat [12, 17] | Plant response rating, Corn (corn (Zea mays); [17]) | further results |
| --- | --- | --- | --- | --- | --- | --- | --- | --- | --- | --- | --- | --- | --- | --- | --- | --- | --- | --- | --- | --- | --- |
| O=C(Nc1ccccc1F)C1C(=O)N(C2C=CCCC2)CC1c1cccc(C(F)(F)F)c1 (stereo not drawn) [Compound 524] | 40 | 70 | 0 | 0 | 0 | 0 | 0 | 0 | 0 | 0 | 20 | 40 | 0 | 20 | 70 | 0 | 0 | 0 | 0 | 0 | Foxtail, Giant plant response rating [8, 16]: 30; Pigweed plant response rating [9, 16]: 0; Kochia plant response rating (Kochia (Kochia scoparia) [10]; [16]): 0; Ragweed plant response rating [11, 16]: 0; Wheat plant response rating [12, 16]: 0; Corn plant response rating (corn (Zea mays); [16]): 0; Ryegrass, Italian plant response rating [13, 16]: 0; Plant response rating, Ryegrass, Italian [13, 17]: 0; Barnyardgrass plant response rating [14]: 30; Plant response rating, Barnyardgrass [14]: 70; Galium plant response rating [15, 16]: 0; Plant response rating, Galium [15, 17]: 0 |
| O=C(Nc1ccccc1F)C1C(=O)N(CC=CBr)CC1c1cccc(C(F)(F)F)c1 (stereo not drawn) [Compound 526] | 70 | 80 | 0 | 0 | 0 | 0 | 0 | 0 | 0 | 0 | 0 | 20 | 0 | 0 | 40 | 0 | 0 | 0 | 0 | 0 | Plant response rating, Foxtail, Giant [8, 18]: 20; Plant response rating, Pigweed [9, 18]: 0; Plant response rating, Kochia (Kochia (Kochia scoparia) [10]; [18]): 0; Plant response rating, Ragweed [11, 18]: 0; Plant response rating, Wheat [12, 18]: 0; Plant response rating, Corn (corn (Zea mays); [18]): 0; Plant response rating, Ryegrass, Italian [13, 18]: 0; Plant response rating, Ryegrass, Italian [13, 17]: 0; Barnyardgrass plant response rating [14]: 10; Plant response rating, Barnyardgrass [14]: 20; Plant response rating, Galium [15, 18]: 0; Plant response rating, Galium [15, 17]: 0 |
| O=C(Nc1cccc(F)c1F)C1C(=O)N(CC=CBr)CC1c1cccc(C(F)(F)F)c1 (stereo not drawn) [Compound 527] | 80 | 80 | 0 | 0 | 0 | 0 | 0 | 0 | 0 | 0 | 0 | 20 | 0 | 0 | 20 | 0 | 0 | 0 | 0 | 0 | Plant response rating, Foxtail, Giant [8, 18]: 0; Plant response rating, Pigweed [9, 18]: 0; Plant response rating, Kochia (Kochia (Kochia scoparia) [10]; [18]): 0; Plant response rating, Ragweed [11, 18]: 0; Plant response rating, Wheat [12, 18]: 0; Plant response rating, Corn (corn (Zea mays); [18]): 0; Plant response rating, Ryegrass, Italian [13, 18]: 0; Plant response rating, Ryegrass, Italian [13, 17]: 0; Barnyardgrass plant response rating [14]: 0; Plant response rating, Barnyardgrass [14]: 20; Plant response rating, Galium [15, 18]: 0; Plant response rating, Galium [15, 17]: 0 |
